Measurements: article PMC10537268 (Plants, 2023)
Converted amounts (≈) assume the structure as drawn. “And” between values parts separate entries of the source, which are not always exact repeats. Equal entries are not always repeated.

What was measured:
COX-1 = molecular target: T1, COX-1 (Ovis aries, UniProt P05979); experiment: COX-1 fluorometric inhibitory screening assay kit; assay type: biochemical, Ovine
T1 construct: purchased Cayman Chemical Company 700100
T1 sequence (P05979 25-600): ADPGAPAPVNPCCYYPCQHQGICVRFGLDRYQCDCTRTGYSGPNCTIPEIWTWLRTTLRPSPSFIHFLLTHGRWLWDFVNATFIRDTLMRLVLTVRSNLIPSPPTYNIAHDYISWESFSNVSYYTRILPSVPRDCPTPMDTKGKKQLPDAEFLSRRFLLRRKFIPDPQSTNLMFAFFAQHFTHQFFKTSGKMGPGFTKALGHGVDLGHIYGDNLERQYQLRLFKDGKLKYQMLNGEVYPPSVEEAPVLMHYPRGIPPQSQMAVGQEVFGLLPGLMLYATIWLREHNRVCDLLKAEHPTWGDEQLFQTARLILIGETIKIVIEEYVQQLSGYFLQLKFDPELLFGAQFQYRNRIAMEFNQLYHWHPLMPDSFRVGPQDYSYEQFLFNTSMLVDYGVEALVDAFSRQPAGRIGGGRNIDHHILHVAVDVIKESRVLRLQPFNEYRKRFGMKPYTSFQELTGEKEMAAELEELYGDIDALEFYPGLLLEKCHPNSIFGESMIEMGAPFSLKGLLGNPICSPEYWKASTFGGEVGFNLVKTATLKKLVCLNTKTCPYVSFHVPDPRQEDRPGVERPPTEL
Procedure: (§1) The essential oils and geraniol were tested using a commercial COX-1 (Ovine), COX-2 (Human recombinant), and fluorometric inhibitory screening assay kit following the instructions recommended by the manufacturer (Cayman test kit 700100, Cayman Chemical Company, Ann Arbor, MI, USA). Briefly, 150 µL of assay buffer (0.1 M Tris-HCl pH 8.0), 10 µL of Heme, 10 µL of enzyme (COX-1 or COX-2), and 10 µL of the test sample were added to the wells. After 5 min at 25 °C, 10 µL of ADHP (10-acetyl-3 7-dihydroxy phenoxazine) and 10 µL of arachidonic acid were added to initiate the reaction. The plate was incubated at room temperature for 2 min followed by fluorescence measured at 530 nm (excitation) and 585 nm (emission). Stock solution of the essential oils was prepared with DMSO 1%. The triplicate experimental data are expressed as mean ± standard deviation (SD). For the percentage inhibition (%I) calculations, the formula below was used:t% I = [(Initial Activity − Sample Activity)/Initial Activity] × 100

COX-2 = molecular target: T2, COX-2 (Homo sapiens, UniProt P35354); experiment: biochemical
T2 sequence (P35354 18-604): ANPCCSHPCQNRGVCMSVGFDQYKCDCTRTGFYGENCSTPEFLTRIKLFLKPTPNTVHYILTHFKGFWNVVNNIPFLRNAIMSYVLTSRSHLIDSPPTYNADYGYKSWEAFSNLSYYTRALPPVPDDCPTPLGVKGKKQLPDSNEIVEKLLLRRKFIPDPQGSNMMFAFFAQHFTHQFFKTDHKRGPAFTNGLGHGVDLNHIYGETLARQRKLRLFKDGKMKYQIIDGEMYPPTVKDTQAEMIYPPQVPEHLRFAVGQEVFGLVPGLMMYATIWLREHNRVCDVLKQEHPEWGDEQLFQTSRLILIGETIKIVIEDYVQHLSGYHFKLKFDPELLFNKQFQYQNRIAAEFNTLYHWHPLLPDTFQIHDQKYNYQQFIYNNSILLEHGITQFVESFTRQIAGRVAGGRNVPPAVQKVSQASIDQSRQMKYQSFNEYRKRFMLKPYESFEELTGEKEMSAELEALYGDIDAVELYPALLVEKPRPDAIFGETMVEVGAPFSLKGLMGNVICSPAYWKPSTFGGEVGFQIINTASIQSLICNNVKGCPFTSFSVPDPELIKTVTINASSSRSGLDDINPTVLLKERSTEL
Procedure: as §1

ACE2 = molecular target: T3, ACE2 (Homo sapiens, UniProt Q9BYF1); experiment: ACE2 enzyme inhibition assay (BioVision kit); assay type: biochemical; settings: read-out: ACE2 inhibition
T3 construct: purchased BioVision K310
Procedure: The ACE2 enzyme inhibition assay was performed using the commercially available kit (BioVision, UK, Catalog number: K310). Stock solutions of the test samples were prepared in DMSO (1%, v/v). Essential oils (20 μg/mL) and geraniol (5 μg/mL) were dispensed into a 96-well plate followed by addition of ACE2 enzyme solution (blank excluded). The reaction was started by adding 40 µL of substrate solution to each well. The reaction mixture was measured at Ex/Em = 320/420 nm wavelength using the SpectraMax i3, fluorescent microplate reader (Molecular Devices, CA, USA). The results are reported as % inhibition values, which were obtained for all samples from triplicate experiments.

AChE = molecular target: T4, AChE (Electrophorus electricus, UniProt O42275); experiment: Anticholinesterase activity, modified Ellman method (AChE); assay type: biochemical
T4 construct: purchased Sigma Aldrich
Procedure: Cholinesterase inhibition was determined spectrophotometrically through the modified Ellman method. Ethanol was used as negative control. Sodium phosphate buffer, AChE enzyme stock solution, the essential oils, and geraniol were mixed and allowed to incubate for 30 min at room temperature DTNB and acetylthiocholine were added to initiate the enzyme reaction.

A549 cells = experiment: MTT cytotoxicity assay, A549; assay type: cell-based; settings: Homo sapiens, A549, 24 h, read-out: IC50 A549 cytotoxicity
Procedure: (§2) Human breast cancer cell lines MCF7 (ATCC HTB-22), human prostate cancer cell lines PC3 (ATCC CRL-1435), human lung cancer cell lines A549 (ATCC CCL-185), and human embryonic kidney cell lines HEK293 (ATCC CRL-1573) were cultured in Dulbecco’s Modified Eagle’s Medium/High Glucose (DMEM, High Glucose) or Dulbecco’s Modified Eagle’s Medium/F12 (DMEM, F12) at 37 °C in a humidified 5% CO2 atmosphere. The media were supplemented with 10% fetal bovine serum (FBS), 1% (v/v) antibiotic-antimycotics solution (100 U/mL of penicillin, 100 μg/mL of streptomycin, and 0.25 μg/mL of amphotericin B), and 1% (v/v) non-essential amino acids.
(§3) Cells were cultured for 24 h in 96-well plates containing 10^5 cells per well before exposure. The essential oils and geraniol were dissolved in DMSO (<1%) and diluted with respective medium for use in MTT assay (0.1–2000 µg/mL concentration range). After incubation, the […] and washed with D-PBS followed by addition of MTT (30 µL). After a 4 h incubation period, 150 µL of DMSO was added and mixed using a shaker at 25 °C. This was followed by measurement of the absorbances a 540 nm using the microplate reader. All experiments were performed in triplicate.

PC3 cells = experiment: MTT cytotoxicity assay, PC3; assay type: cell-based; settings: Homo sapiens, PC-3, 24 h, read-out: IC50 PC3 cytotoxicity
Procedure: as §2, §3

MCF7 cells = experiment: MTT cytotoxicity assay, MCF7; assay type: cell-based; settings: Homo sapiens, MCF7, 24 h, read-out: IC50 MCF7 cytotoxicity
Procedure: as §2, §3

[1] = MTT cytotoxicity assay, HEK293; assay type: cell-based; settings: human, HEK293 cells, healthy cell line, ND: Not detected
Procedure: as §2, §3

[2] = human recombinant COX-2, fluorometric kit

T4 sequence (O42275 24-633): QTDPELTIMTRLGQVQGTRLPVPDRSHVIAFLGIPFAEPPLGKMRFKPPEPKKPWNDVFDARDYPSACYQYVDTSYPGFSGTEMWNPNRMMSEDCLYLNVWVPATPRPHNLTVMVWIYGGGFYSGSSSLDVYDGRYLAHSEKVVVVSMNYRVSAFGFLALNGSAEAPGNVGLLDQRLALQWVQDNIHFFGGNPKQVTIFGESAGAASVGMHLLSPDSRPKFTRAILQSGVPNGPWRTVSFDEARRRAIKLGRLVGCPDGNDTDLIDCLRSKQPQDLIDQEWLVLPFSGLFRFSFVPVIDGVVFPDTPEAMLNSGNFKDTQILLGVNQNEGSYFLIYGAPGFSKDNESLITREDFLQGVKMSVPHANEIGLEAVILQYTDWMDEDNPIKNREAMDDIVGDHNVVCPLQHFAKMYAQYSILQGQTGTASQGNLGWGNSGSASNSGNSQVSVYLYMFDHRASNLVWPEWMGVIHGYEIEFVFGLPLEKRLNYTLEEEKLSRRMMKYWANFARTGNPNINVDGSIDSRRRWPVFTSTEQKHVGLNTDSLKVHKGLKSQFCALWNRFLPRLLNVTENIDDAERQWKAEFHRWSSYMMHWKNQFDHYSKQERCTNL
T3 sequence (Q9BYF1 18-805): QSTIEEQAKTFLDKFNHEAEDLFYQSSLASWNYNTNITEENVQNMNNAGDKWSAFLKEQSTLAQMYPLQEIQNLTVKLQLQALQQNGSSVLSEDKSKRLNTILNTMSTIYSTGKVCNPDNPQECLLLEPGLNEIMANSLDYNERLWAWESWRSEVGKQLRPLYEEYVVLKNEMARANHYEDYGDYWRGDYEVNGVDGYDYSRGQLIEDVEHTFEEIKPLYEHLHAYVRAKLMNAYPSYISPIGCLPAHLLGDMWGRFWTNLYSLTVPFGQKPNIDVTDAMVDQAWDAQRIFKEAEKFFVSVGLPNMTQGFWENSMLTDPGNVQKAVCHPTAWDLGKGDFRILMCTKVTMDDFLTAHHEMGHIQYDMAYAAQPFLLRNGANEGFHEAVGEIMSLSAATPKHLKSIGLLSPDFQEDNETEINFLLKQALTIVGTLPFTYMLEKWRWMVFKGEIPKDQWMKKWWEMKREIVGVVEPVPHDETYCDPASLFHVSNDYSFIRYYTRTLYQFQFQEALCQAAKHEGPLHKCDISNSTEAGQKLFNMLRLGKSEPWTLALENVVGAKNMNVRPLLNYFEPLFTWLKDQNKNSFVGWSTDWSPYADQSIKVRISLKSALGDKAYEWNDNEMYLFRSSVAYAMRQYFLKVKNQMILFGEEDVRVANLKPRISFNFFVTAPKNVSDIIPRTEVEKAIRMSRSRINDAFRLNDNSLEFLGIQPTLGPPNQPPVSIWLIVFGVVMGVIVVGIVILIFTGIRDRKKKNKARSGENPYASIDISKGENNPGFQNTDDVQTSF

Structure (SMILES) | IC50 (COX-1; IC50 COX-1, ovine COX-1, fluorometric kit) | SI (selectivity index) (COX-2; COX-2 versus COX-1 IC50) | IC50 (COX-2; [2]) | inhibition at 5 µg/mL (ACE2) [%] | IC50 (AChE) [µM] | IC50 (A549 cells) [µg/mL] | IC50 (PC3 cells) [µg/mL] | IC50 (MCF7 cells) [µg/mL] | IC50 at 24 h [1] [µg/mL] | IC50 COX-1 (COX-1; ovine COX-1, fluorometric kit) [µg/mL] | IC50 COX-2 (COX-2; [2]) [µg/mL]
CC(C)=CCC/C(C)=C/CO [Geraniol] | 71.3 µM and 72.4 µM | 0.72 | 52.5 µM and 52.6 µM | 86.3 | 109 | 58.9 ± 1.09 (≈ 382 µM) | 77 ± 2.06 (≈ 499 µM) | 42.8 ± 1.48 (≈ 278 µM) | 81.8 ± 1.98 (≈ 530 µM) | – | –
CC(Cc1ccc(O)c(O)c1)C(C)Cc1ccc(O)c(O)c1 (centres unmarked) [Nordihydroguaretic Acid, Nordihydroguaiaretic acid, reference compound] | – | – | – | – | – | – | – | – | – | 7.1 (≈ 23.5 µM) | 9.1
